Experiment [1] has as its target T1, PI3K delta (Homo sapiens, UniProt O00329).
T1 construct: for the full-length p110-d subunit are generated and fused by overlapping PCR; His tag (C); made in house; host or cells: baculovirus BV1060; Tn5 (Trichoplusia ni) or TiniPro insect cells
Briefly: PI3K delta kinase assay (Kinase-Glo luminescence). The class given is biochemical. The method, boiled down:
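Kinase-Glo ATP-depletion luminescence using 10 nM p85(iSH2)-linker-p110δ full-length His-tag construct from insect cells, with 1 μM ATP and 10 μg/mL phosphatidylinositol in 10 mM Tris pH 7.5, 3 mM MgCl2, 50 mM NaCl, 0.05% CHAPS, 1 mM DTT. 60 min room temperature; IC50 from 4-parameter logistic fit over 8 concentrations.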

The target in experiment [2] is T2, PI3K alfa (Homo sapiens, UniProt P42336).
T2 construct: His tag (C); made in house; host or cells: baculovirus BV1075; Tn5 (Trichoplusia ni) or TiniPro insect cells
Briefly: PI3K alpha kinase assay (Kinase-Glo luminescence). The class given is biochemical. The method, boiled down:
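Kinase-Glo luminescence read of ATP remaining after PI3Kα (10 nM) phosphorylates 10 μg/mL bovine liver phosphatidylinositol with 1 μM ATP, pH 7.5 TRIS, 3 mM MgCl2, 0.05% CHAPS; 60 min at room temperature. IC50 from 4-parameter logistic fit over 8 concentrations.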

From US20100311714A1, “1H-IMIDAZO[4,5-c]QUINOLINONE COMPOUNDS” (priority 2009, published 2010) come the findings set out here.

The structures appear in SMILES notation. Like-named read-outs stand apart in the source and are kept apart here.

T2 sequence (P42336 with tags, fused parts or gaps limits assumed): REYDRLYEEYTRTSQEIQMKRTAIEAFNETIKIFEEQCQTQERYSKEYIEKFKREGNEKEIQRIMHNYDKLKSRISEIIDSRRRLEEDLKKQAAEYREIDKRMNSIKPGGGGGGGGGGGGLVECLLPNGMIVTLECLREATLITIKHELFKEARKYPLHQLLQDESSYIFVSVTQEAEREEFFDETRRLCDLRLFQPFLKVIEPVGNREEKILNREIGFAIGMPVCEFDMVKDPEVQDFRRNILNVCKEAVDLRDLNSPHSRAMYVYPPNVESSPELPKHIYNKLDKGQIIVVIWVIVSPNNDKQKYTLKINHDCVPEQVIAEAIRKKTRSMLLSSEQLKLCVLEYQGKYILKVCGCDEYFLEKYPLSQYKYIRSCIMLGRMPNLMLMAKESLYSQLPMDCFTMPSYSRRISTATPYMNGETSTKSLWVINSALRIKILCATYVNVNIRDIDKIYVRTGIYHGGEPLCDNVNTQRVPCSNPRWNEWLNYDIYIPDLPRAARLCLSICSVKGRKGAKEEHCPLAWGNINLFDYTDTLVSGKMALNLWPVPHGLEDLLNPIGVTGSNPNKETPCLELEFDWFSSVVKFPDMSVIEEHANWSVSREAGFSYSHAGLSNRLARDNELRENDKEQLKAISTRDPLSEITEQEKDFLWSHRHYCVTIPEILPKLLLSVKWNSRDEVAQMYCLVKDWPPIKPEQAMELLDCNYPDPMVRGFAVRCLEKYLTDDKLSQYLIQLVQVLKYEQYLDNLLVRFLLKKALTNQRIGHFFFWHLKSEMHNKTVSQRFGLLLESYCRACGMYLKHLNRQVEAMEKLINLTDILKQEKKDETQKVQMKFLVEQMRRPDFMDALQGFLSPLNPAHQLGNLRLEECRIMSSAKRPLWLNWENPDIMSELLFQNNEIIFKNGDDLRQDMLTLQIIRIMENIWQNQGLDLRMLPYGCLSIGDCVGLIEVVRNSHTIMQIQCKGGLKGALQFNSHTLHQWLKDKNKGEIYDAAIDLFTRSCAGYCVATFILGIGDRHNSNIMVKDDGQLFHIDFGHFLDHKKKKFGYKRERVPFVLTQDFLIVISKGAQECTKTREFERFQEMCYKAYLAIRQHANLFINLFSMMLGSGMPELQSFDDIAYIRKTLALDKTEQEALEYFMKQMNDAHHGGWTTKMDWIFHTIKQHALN
T1 sequence (O00329 with tags, fused parts or gaps limits assumed): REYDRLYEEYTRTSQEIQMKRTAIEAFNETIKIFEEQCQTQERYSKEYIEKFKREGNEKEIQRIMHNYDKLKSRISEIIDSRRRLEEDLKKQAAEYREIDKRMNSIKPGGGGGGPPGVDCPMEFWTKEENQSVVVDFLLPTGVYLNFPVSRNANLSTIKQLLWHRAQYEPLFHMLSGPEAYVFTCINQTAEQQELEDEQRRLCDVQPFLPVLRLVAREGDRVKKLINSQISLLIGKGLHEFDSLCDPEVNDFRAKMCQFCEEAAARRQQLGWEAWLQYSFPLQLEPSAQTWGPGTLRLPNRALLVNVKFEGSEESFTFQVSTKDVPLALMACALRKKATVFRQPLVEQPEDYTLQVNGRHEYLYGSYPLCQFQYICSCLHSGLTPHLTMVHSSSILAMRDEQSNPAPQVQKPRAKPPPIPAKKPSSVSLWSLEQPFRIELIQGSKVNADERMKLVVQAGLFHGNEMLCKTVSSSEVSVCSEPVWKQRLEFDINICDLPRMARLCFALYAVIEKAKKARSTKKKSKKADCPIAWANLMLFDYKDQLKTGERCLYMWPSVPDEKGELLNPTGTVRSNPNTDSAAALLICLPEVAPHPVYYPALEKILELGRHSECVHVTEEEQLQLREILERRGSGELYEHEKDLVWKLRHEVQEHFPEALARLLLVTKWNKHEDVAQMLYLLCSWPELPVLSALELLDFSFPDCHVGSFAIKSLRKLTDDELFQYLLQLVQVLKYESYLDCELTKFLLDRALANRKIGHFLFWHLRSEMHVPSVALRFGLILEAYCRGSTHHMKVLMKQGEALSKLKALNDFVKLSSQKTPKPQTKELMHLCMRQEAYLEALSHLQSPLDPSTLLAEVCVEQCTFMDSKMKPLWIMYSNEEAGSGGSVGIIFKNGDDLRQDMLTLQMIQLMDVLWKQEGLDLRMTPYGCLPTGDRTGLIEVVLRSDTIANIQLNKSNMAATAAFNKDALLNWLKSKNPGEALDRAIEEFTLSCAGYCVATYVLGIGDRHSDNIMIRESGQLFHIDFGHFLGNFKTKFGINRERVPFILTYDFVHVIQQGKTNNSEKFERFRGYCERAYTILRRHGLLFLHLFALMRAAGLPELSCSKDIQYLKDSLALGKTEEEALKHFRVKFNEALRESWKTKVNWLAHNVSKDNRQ

In the case of `CNc1ccc(-c2ccc3ncc4c(c3c2)n(-c2ccc(F)nc2C)c(=O)n4C)cn1` [Example 7.4, 1-(6-Fluoro-2-methyl-pyridin-3-yl)-3-methyl-8-(6-methylamino-pyridin-3-yl)-1,3-dihydro-imidazo[4,5-c]quinolin-2-one], the IC50 in experiment [1] (read-out: PI3Kdelta/IC50) stood at 0.021 µM; in experiment [2] (read-out: PI3Kalfa/IC50), 0.027 µM.

On to `CCOc1cc(-c2ccc3ncc4c(c3c2)n(-c2ccc(F)nc2C)c(=O)n4C)cnc1COC` [Example 7.5, 8-(5-Ethoxy-6-methoxymethyl-pyridin-3-yl)-1-(6-fluoro-2-methyl-pyridin-3-yl)-3-methyl-1,3-dihydro-imidazo[4,5-c]quinolin-2-one], for which the IC50 in experiment [1] (read-out: EPK_PI3Kdelta/IC50) stood at 0.078 µM; in experiment [2] (read-out: EPK_PI3Kalfa/IC50) it was 0.094 µM.

Take `Cc1nc(F)ccc1-n1c(=O)n(C)c2cnc3ccc(-c4cncc(C(C)(C)O)c4)cc3c21` [Example 7.8, 1-(6-Fluoro-2-methyl-pyridin-3-yl)-8-[5-(1-hydroxy-1-methyl-ethyl)-pyridin-3-yl]-3-methyl-1,3-dihydro-imidazo[4,5-c]quinolin-2-one]: the values for the IC50 in experiment [1] (read-out: EPK_PI3Kdelta/IC50) and in experiment [2] (read-out: EPK_PI3Kalfa/IC50) were 0.038 µM and 0.021 µM, respectively.

With `CCOc1ccc(-c2ccc3ncc4c(c3c2)n(-c2ccc(N3CCNCC3)nc2OC)c(=O)n4C)cn1` [Example 9.1, 8-(6-Ethoxy-pyridin-3-yl)-1-(2-methoxy-6-piperazin-1-yl-pyridin-3-yl)-3-methyl-1,3-dihydro-imidazo[4,5-c]quinolin-2-one], the IC50 was determined as 0.066 µM in experiment [1] (read-out: PI3Kdelta/IC50) and 0.058 µM in experiment [2] (read-out: PI3Kalfa/IC50).

As to `COc1nc(N2CCNCC2)ccc1-n1c(=O)n(C)c2cnc3ccc(-c4cnc(N)c(C(F)(F)F)c4)cc3c21` [Example 9.2, 8-(6-Amino-5-trifluoromethyl-pyridin-3-yl)-1-(2-methoxy-6-piperazin-1-yl-pyridin-3-yl)-3-methyl-1,3-dihydro-imidazo[4,5-c]quinolin-2-one], the results for the IC50 in experiment [1] (read-out: PI3Kdelta/IC50) and in experiment [2] (read-out: PI3Kalfa/IC50) were 0.015 µM and 0.018 µM, respectively.

Regarding `Cc1nc(N2CCN(C)C(=O)C2)ccc1-n1c(=O)n(C)c2cnc3ccc(-c4cnc(N)c(C(F)(F)F)c4)cc3c21` [Example 21.1, 8-(6-Amino-5-trifluoromethyl-pyridin-3-yl)-3-methyl-1-[2-methyl-6-(4-methyl-3-oxo-piperazin-1-yl)-pyridin-3-yl]-1,3-dihydro-imidazo[4,5-c]quinolin-2-one], the IC50 in experiment [1] (read-out: EPK_PI3Kdelta/IC50) and in experiment [2] (read-out: EPK_PI3Kalfa/IC50) was 0.005 µM each time.

For the molecule `CCOc1cc(-c2ccc3ncc4c(c3c2)n(-c2ccc(OCCOC)nc2C)c(=O)n4C)cnc1COC` [Example 22.1, 8-(5-Ethoxy-6-methoxymethyl-pyridin-3-yl)-1-[6-(2-methoxy-ethoxy)-2-methyl-pyridin-3-yl]-3-methyl-1,3-dihydro-imidazo[4,5-c]quinolin-2-one], the IC50 in experiment [1] (read-out: EPK_PI3Kdelta/IC50) was found to be 0.06 µM; in experiment [2] (read-out: EPK_PI3Kalfa/IC50) it was 0.188 µM.

Turning to `Cc1nc(N2CCC2)ccc1-n1c(=O)n(C)c2cnc3ccc(-c4cncc(N5CCC5)c4)cc3c21` [Example 23.1, 1-(6-Azetidin-1-yl-2-methyl-pyridin-3-yl)-8-(5-azetidin-1-yl-pyridin-3-yl)-3-methyl-1,3-dihydro-imidazo[4,5-c]quinolin-2-one], the IC50 turned out to be 0.084 µM in experiment [1] (read-out: EPK_PI3Kdelta/IC50) and 0.014 µM in experiment [2] (read-out: EPK_PI3Kalfa/IC50).

As to `COCc1ncc(-c2ccc3ncc4c(c3c2)n(-c2ccc(N3CCC3)nc2C)c(=O)n4C)cc1OC(C)C` [Example 23.2, 1-(6-Azetidin-1-yl-2-methyl-pyridin-3-yl)-8-(5-isopropoxy-6-methoxymethyl-pyridin-3-yl)-3-methyl-1,3-dihydro-imidazo[4,5-c]quinolin-2-one], the IC50 in experiment [1] (read-out: EPK_PI3Kdelta/IC50) turned out to be 0.031 µM; in experiment [2] (read-out: EPK_PI3Kalfa/IC50), 0.033 µM.

Turning to `Cc1nc(N2CCC2)ccc1-n1c(=O)n(C)c2cnc3ccc(-c4cncc(C(C)(C)O)c4)cc3c21` [Example 23.3, 1-(6-Azetidin-1-yl-2-methyl-pyridin-3-yl)-8-[5-(1-hydroxy-1-methyl-ethyl)-pyridin-3-yl]-3-methyl-1,3-dihydro-imidazo[4,5-c]quinolin-2-one], the IC50 in experiment [1] (read-out: EPK_PI3Kdelta/IC50) was found to be 0.016 µM; in experiment [2] (read-out: EPK_PI3Kalfa/IC50) it was 0.007 µM.

Regarding `CNc1ccc(-c2ccc3ncc4c(c3c2)n(-c2ccc(N3CCC3)nc2C)c(=O)n4C)cn1` [Example 23.4, 1-(6-Azetidin-1-yl-2-methyl-pyridin-3-yl)-3-methyl-8-(6-methylamino-pyridin-3-yl)-1,3-dihydro-imidazo[4,5-c]quinolin-2-one], the IC50 in experiment [1] (read-out: EPK_PI3Kdelta/IC50) is 0.048 µM; in experiment [2] (read-out: EPK_PI3Kalfa/IC50), 0.027 µM.

Turning to `CCOc1cc(-c2ccc3ncc4c(c3c2)n(-c2ccc(N3CCC3)nc2C)c(=O)n4C)cnc1COC` [Example 23.5, 1-(6-Azetidin-1-yl-2-methyl-pyridin-3-yl)-8-(5-ethoxy-6-methoxymethyl-pyridin-3-yl)-3-methyl-1,3-dihydro-imidazo[4,5-c]quinolin-2-one], the IC50 in experiment [1] (read-out: EPK_PI3Kdelta/IC50) was found to be 0.025 µM; in experiment [2] (read-out: EPK_PI3Kalfa/IC50), 0.021 µM.

`COCc1ncc(-c2ccc3ncc4c(c3c2)n(-c2ccc(N3CCC3)nc2C)c(=O)n4C)cc1OC` [Example 23.6, 1-(6-Azetidin-1-yl-2-methyl-pyridin-3-yl)-8-(5-methoxy-6-methoxymethyl-pyridin-3-yl)-3-methyl-1,3-dihydro-imidazo[4,5-c]quinolin-2-one]: the IC50 amounted to 0.046 µM in experiment [1] (read-out: EPK_PI3Kdelta/IC50) and 0.044 µM in experiment [2] (read-out: EPK_PI3Kalfa/IC50).

As to `CCNc1cc(-c2ccc3ncc4c(c3c2)n(-c2ccc(N3CCC3)nc2C)c(=O)n4C)cnc1CO` [Example 23.8, 1-(6-Azetidin-1-yl-2-methyl-pyridin-3-yl)-8-(5-ethylamino-6-hydroxymethyl-pyridin-3-yl)-3-methyl-1,3-dihydro-imidazo[4,5-c]quinolin-2-one], the IC50 in experiment [1] (read-out: EPK_PI3Kdelta/IC50) was determined as 0.017 µM; in experiment [2] (read-out: EPK_PI3Kalfa/IC50), 0.014 µM.

On to `Cc1nc(N2CCC2)ccc1-n1c(=O)n(C)c2cnc3ccc(-c4cncc(OC(C)C)c4)cc3c21` [Example 23.9, 1-(6-Azetidin-1-yl-2-methyl-pyridin-3-yl)-8-(5-isopropoxy-pyridin-3-yl)-3-methyl-1,3-dihydro-imidazo[4,5-c]quinolin-2-one], for which the IC50 was 0.032 µM in experiment [1] (read-out: EPK_PI3Kdelta/IC50) and 0.033 µM in experiment [2] (read-out: EPK_PI3Kalfa/IC50).

Take `CNc1ncc(-c2ccc3ncc4c(c3c2)n(-c2ccc(N3CC(F)(F)C3)nc2C)c(=O)n4C)cn1` [Example 24.1, 1-[6-(3,3-Difluoro-azetidin-1-yl)-2-methyl-pyridin-3-yl]-3-methyl-8-(2-methylamino-pyrimidin-5-yl)-1,3-dihydro-imidazo[4,5-c]quinolin-2-one]: the IC50 in experiment [1] (read-out: EPK_PI3Kdelta/IC50) is 0.164 µM; in experiment [2] (read-out: EPK_PI3Kalfa/IC50), 0.049 µM.

`CCOc1cc(-c2ccc3ncc4c(c3c2)n(-c2ccc(N3CCCC3)nc2C)c(=O)n4C)cnc1COC` [Example 25.2, 8-(5-Ethoxy-6-methoxymethyl-pyridin-3-yl)-3-methyl-1-(2-methyl-6-pyrrolidin-1-yl-pyridin-3-yl)-1,3-dihydro-imidazo[4,5-c]quinolin-2-one]: the values for the IC50 in experiment [1] (read-out: EPK_PI3Kdelta/IC50) and in experiment [2] (read-out: EPK_PI3Kalfa/IC50) were 0.043 µM and 0.067 µM, respectively.

Consider `Cc1nc(N2CCCC2)ccc1-n1c(=O)n(C)c2cnc3ccc(-c4cncc(C(C)(C)O)c4)cc3c21` [Example 25.3, 8-[5-(1-Hydroxy-1-methyl-ethyl)-pyridin-3-yl]-3-methyl-1-(2-methyl-6-pyrrolidin-1-yl-pyridin-3-yl)-1,3-dihydro-imidazo[4,5-c]quinolin-2-one], for which the IC50 in experiment [1] (read-out: EPK_PI3Kdelta/IC50) and in experiment [2] (read-out: EPK_PI3Kalfa/IC50) was less than 0.003 µM each time.
